Marks after values point to notes of the source that are not given here.
Tests used:
[1] = test system: mouse unilateral ureteral obstruction (UUO) model; assay: Anti-fibrotic activity, mouse unilateral ureteral obstruction (UUO) model, oral administration (Test Example 2); format: in vivo, BALB/c mice; settings: UUO treatment, left kidney, average of 7 mice ± standard deviation
Experimental: The anti-fibrotic activity of the compounds related to the present invention was evaluated using a mouse unilateral ureteral obstruction (UUO) model which is a renal fibrosis model. Compound r384 produced in the working example was used as the test compound. Seven week-old male BALB/c mice (available from Charles River Japan, Inc.) were purchased and were pre-raised before use in experiments. Regarding diets and drinking water, pellets CE-2 (available from CLEA JAPAN INC.) and sterile tap water were freely fed. The mice underwent laparotomy under pentobarbital anesthesia, and the left renal urinary duct was ligated. Thereafter, the mice underwent suturing operation and were divided into a vehicle administration group (n = 7) and a test compound administration group (n = 7) using the weight as an index. The test compound was weighed, and then one drop of 1 N HCl was added to the test compound to prepare a solution. The solution was then suspended in 0.5% carboxymethylcellulose (solvent). The suspension was forcibly orally administered twice a day with an oral sonde from the day of urinary duct ligation (5, 15, or 50 mg/kg). The solvent was administered to the vehicle administration group in the same manner as described just above.
After administration for 4 days, the mouse left kidney was removed, and the hydroxyproline content as an index of organ fibrosis was measured by the following method. Renal pieces were first placed in 6 N HCl, were homogenized, and were then heated on a heat block at 130°C for 3 hr to hydrolyze protein. Thereafter, the suspension of renal pieces was neutralized by the addition of an appropriate amount of 4 N NaOH. The neutralized suspension was centrifuged (1000 rpm, 5 min, room temperature) to obtain the supernatant as a kidney extract. […] The absorbance at 557 nm was then measured. The content of hydroxyproline was determined from the measured data based on a calibration curve for hydroxyproline prepared using control. Further, the content of hydroxyproline thus determined was corrected according to the weight of the homogenized kidney. […]

[2] = test system: mouse DMN hepatic fibrosis model; assay: Anti-fibrotic activity, mouse DMN hepatic fibrosis model (Test Example 4); format: in vivo, BALB/c mice; settings: DMN administration, 21 days, average of 6 mice ± standard deviation
Experimental: The anti-fibrotic activity of a compound related to the present invention was evaluated using a mouse DMN hepatic fibrosis model as a liver fibrosis model. Compound r384 prepared in the working example was used as the test compound. Six-week-old male BALB/c mice (available from Charles River Japan, Inc.) were purchased and were pre-raised before use in experiments. The mice were divided into a vehicle administration group (n = 6) and a test compound administration group ([…]) using the weight as an index. Thereafter, dimethylnitrosoamine (DMN) diluted with physiological saline was intraperitoneally administered at 15 mg/kg three times per week for 3 weeks to induce hepatic fibrosis. The administration of the test compound was carried out from the first day of the DMN administration. The test compound was mixed at the dosage of 0.015, 0.03, and 0.06% in powder diet CE-2 (available from CLEA JAPAN INC.), and the mixtures were fed as a diet to each mouse group. After 21 days, the mice underwent laparotomy under ether anesthesia, and blood was collected from the heart, followed by measurement of the level of hyaluronic acid in blood as an index of hepatic fibrosis using a hyaluronic acid plate (Chugai Pharmaceutical Co., Ltd.).
The values in the table are average of data on 6 mice for each group ± standard deviation.

TGFβ signal = TGFβ signal inhibitory activity, (SBE)4-Luc reporter in A549 cells (Test Examples 1A and 1B); format: cell-based, human; settings: Homo sapiens, A549, compounds of Reference Examples (Test Example 1B), read-out: TGFβ inhibition rate, %
Procedure, shortened: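 Compounds at 3 µM and 10 µM (some 1 µM) were added with 2 ng/ml TGFβ-1 to A549 cells stably expressing an SBE-driven luciferase, then cultured 4 hr. Chemiluminescent luciferase signal gave % inhibition versus TGFβ-alone and no-TGFβ controls.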

COc1cc2c(Oc3cc4ccccc4nc3C)ccnc2cc1OCC(O)CO (stereo not shown) [Compound r384, 3-[6-Methoxy-4-(2-metharl-quinolin-3-yloxy)-quinolin-7-yloxy]-propane-1,2-diol]
Hydroxyproline content ([1]; 5 mg/kg orally twice a day for 4 days): 514 ± 20.8 µg/g
Hydroxyproline content ([1]; 15 mg/kg orally twice a day for 4 days): 488 ± 10.9 µg/g
Hydroxyproline content ([1]; 50 mg/kg orally twice a day for 4 days): 426 ± 14.2 µg/g
Blood hyaluronic acid content ([2]; 0.015% mixed feed): 167.8 ± 25.0 ng/mL
Blood hyaluronic acid content (ng/ml) ([2]; 0.06% mixed feed): 97.2 + 11.0** ng/ml
inhibition at 3 µM (TGFβ signal; 3 µM): 100%
inhibition at 10 µM (TGFβ signal; 10 µM): 100%

From patent EP1724268A1, “COMPOUND HAVING TGF-BETA INHIBITORY ACTIVITY AND PHARMACEUTICAL COMPOSITION CONTAINING SAME” (KIRIN BEER KABUSHIKI KAISHA, priority 2004, dated 2005)
